Assay results taken from patent US20080188528A1, “Modulators of C3a receptor and methods of use thereof” (priority 2006, published 2008).
Where a name gives a salt, the structure may show the parent alone.

Target: T1, human C3a receptor (C3aR) (Homo sapiens, UniProt Q16581)
T1 construct: expressed in transfected cells
T1 sequence (Q16581 1-482): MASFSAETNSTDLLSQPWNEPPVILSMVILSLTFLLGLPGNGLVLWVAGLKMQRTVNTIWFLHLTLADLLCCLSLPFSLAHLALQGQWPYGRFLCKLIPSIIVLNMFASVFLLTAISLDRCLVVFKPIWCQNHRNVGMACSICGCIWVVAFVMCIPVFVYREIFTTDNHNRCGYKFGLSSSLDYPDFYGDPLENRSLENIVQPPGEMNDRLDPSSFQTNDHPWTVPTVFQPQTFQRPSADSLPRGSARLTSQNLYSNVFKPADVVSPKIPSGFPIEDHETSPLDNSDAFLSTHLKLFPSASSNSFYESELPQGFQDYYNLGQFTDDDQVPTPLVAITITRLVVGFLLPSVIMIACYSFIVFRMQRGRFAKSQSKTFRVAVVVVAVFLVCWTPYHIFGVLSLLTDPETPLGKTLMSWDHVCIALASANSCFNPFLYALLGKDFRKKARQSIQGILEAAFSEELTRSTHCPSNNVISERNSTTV
Experiment: Inhibition of human [125I]-C3a binding to human C3a receptor (SPA, membranes of HEK293 cells expressing recombinant C3aR)
Settings: 0.1 nM [125I]-C3a, 3 hours at room temperature; Table 3
Method: Inhibition of human [^125I]-C3a binding to human C3a receptor
Binding of human [^125I]-C3a to human C3a receptor (C3aR) was done using cell membranes from HEK293 cells stably expressing recombinant C3aR, in a homogeneous scintillation proximity assay (SPA). The C3aR cell membranes were pre-coupled over-night at 4° C. to WGA-PVT SPA beads (Amersham) at a ratio of 10 μg cell membrane to 0.5 mg beads/assay. Assay was performed in 96-well microtiter Optiplates (Packard) by mixing coupled beads and 0.1 nM [^125I]-C3a (2200 Ci/mmol, Perkin Elmer Life Sciences), in a total volume of […] binding buffer (20 mM HEPES, pH 7.4, 125 mM NaCl, 5 mM KCl, 1 mM CaCl2, 1 mM MgCl2, 0.25% BSA, 0.2% CHAPS). Test compounds were diluted in DMSO and were tested for their inhibitory potential in the assay (final concentration≦1% DMSO). Incubation was done for 3 hours at room temperature followed by reading in a TopCount scintillation microplate reader. Non-specific binding was determined by adding 1 μM unlabeled C3a (Calbiochem) to the assay mixture. Calculation of the IC50 was done as above using a nonlinear least square fitting program, with Graphpad Prism.

| Compound | IC50 [nM] |
| --- | --- |
| N=C(N)NCCC[C@H](NC(=O)c1cccc(Cc2ccccc2)c1)C(=O)O [Compound 52, (2S)-2-[(3-benzylbenzoyl)amino]-5-carbamimidamidopentanoic acid•TFA] | 50 to 500 |
| N=C(N)NCCC[C@H](NC(=O)c1ccn(Cc2ccccc2)c(=O)c1)C(=O)O [Compound 53, (2S)-2-{[(1-benzyl-2-oxo-1,2-dihydropyridin-4-yl)carbonyl]amino}-5-carbamimidamidopentanoic acid•TFA] | 50 to 500 |
| N=C(N)NCCC[C@H](NC(=O)c1ccc(=O)n(Cc2ccccc2)c1)C(=O)O [Compound 54, (2S)-2-{[(1-benzyl-6-oxo-1,6-dihydropyridin-3-yl)carbonyl]amino}-5-carbamimidamidopentanoic acid•TFA] | 50 to 500 |
| N=C(N)NCCC[C@H](NC(=O)c1cccc(=O)n1Cc1ccccc1)C(=O)O [Compound 55, (2S)-2-{[(1-benzyl-6-oxo-1,6-dihydropyridin-2-yl)carbonyl]amino}-5-carbamimidamidopentanoic acid•TFA] | 50 to 500 |
| CC(C)(C(=O)NC(c1ccccc1)c1ccccc1)C(=O)N[C@@H](CCCNC(=N)N)C(=O)O [Compound 58, (2S)-5-carbamimidamido-2-({3-[(diphenylmethyl)amino]-2,2-dimethyl-3-oxopropanoyl}amino)pentanoic acid•TFA] | < 50 |

Further lines, results first:

| IC50 [nM] | Compound |
| --- | --- |
| 50 to 500 | N=C(N)NCCC[C@H](NC(=O)c1ccn(C(c2ccccc2)c2ccccc2)c(=O)c1)C(=O)O [Compound 56, (2S)-5-carbamimidamido-2-({[1-(diphenylmethyl)-2-oxo-1,2-dihydropyridin-4-yl]carbonyl}amino)pentanoic acid•TFA] |
| 500 to 20000 | N=C(N)NCCC[C@H](NC(=O)c1ccc(=O)n(C(c2ccccc2)c2ccccc2)c1)C(=O)O [Compound 57, (2S)-5-carbamimidamido-2-({[1-(diphenylmethyl)-6-oxo-1,6-dihydropyridin-3-yl]carbonyl}amino)pentanoic acid•TFA] |

Same assay, conditions: 0.1 nM [125I]-C3a, 3 hours at room temperature; Table 4

| Compound | IC50 [nM] |
| --- | --- |
| NCCCC[C@H](NC(=O)c1cccn(Cc2ccccc2)c1=O)C(=O)O [Compound 60, (2S)-6-amino-2-{[(1-benzyl-2-oxo-1,2-dihydropyridin-3-yl)carbonyl]amino}hexanoic acid•TFA] | 500 to 20000 |
| Cc1ccc(S(=O)(=O)NCCCC[C@H](NC(=O)c2cccn(Cc3ccccc3)c2=O)C(=O)O)cc1 [Compound 61, (2S)-2-{[(1-benzyl-2-oxo-1,2-dihydropyridin-3-yl)carbonyl]amino}-6-{[(4-methylphenyl)sulfonyl]amino} hexanoic acid] | 500 to 20000 |
| O=C(N[C@@H](CCCNC1=NCCN1)C(=O)O)c1cccn(Cc2ccccc2)c1=O [Compound 70, (2S)-2-{[(1-benzyl-2-oxo-1,2-dihydropyridin-3-yl)carbonyl]amino}-5-(4,5-dihydro-1H-imidazol-2-ylamino)pentanoic acid•TFA] | 500 to 20000 |
| N=C(N)Nc1cccc([C@H](NC(=O)c2cccn(Cc3ccccc3)c2=O)C(=O)O)c1 [Compound 72, (2S)-{[(1-benzyl-2-oxo-1,2-dihydropyridin-3-yl)carbonyl]amino}(3-carbamimidamidophenyl)acetic acid•TFA] | 50 to 500 |
| N=C(NCCC[C@H](NC(=O)c1cccn(Cc2ccccc2)c1=O)C(=O)O)N[N+](=O)[O-] [Compound 73, (2S)-2-{[(1-benzyl-2-oxo-1,2-dihydropyridin-3-yl)carbonyl]amino}-5-(nitrocarbamimidamido)pentanoic acid] | 500 to 20000 |
| Cc1ccc(S(=O)(=O)NC(=N)NCCC[C@H](NC(=O)c2cccn(Cc3ccccc3)c2=O)C(=O)O)cc1 [Compound 76, (2S)-2-{[(1-benzyl-2-oxo-1,2-dihydropyridin-3-yl)carbonyl]amino}-5-{[(4-methylphenyl)sulfonyl]carbamimidamido} pentanoic acid] | 500 to 20000 |

More lines, now with the values ahead:

| IC50 [nM] | Compound |
| --- | --- |
| 50 to 500 | Cc1ccc(S(=O)(=O)NCCCC[C@H](NC(=O)c2cccn(C(c3ccccc3)c3ccccc3)c2=O)C(=O)O)cc1 [Compound 62, (2S)-2-({[1-(diphenylmethyl)-2-oxo-1,2-dihydropyridin-3-yl]carbonyl}amino)-6-{[(4-methylphenyl)sulfonyl]amino}hexanoic acid] |
| 500 to 20000 | N=C(N)NCCCC[C@H](NC(=O)c1cccn(Cc2ccccc2)c1=O)C(=O)O [Compound 63, (2S)-2-{[(1-benzyl-2-oxo-1,2-dihydropyridin-3-yl)carbonyl]amino}-6-carbamimidamidohexanoic acid•TFA] |
| 500 to 20000 | NC(=O)CC[C@H](NC(=O)c1cccn(C(c2ccccc2)c2ccccc2)c1=O)C(=O)O [Compound 64, (2S)-5-amino-2-({[1-(diphenylmethyl)-2-oxo-1,2-dihydropyridin-3-yl]carbonyl}amino)-5-oxopentanoic acid] |
| 50 to 500 | N=C(N)NCC[C@H](NC(=O)c1cccn(C(c2ccccc2)c2ccccc2)c1=O)C(=O)O [Compound 65, (2S)-4-carbamimidamido-2-({[1-(diphenylmethyl)-2-oxo-1,2-dihydropyridin-3-yl]carbonyl}amino)butanoic acid•TFA] |
| 500 to 20000 | CCOC(=O)N=C(NC)NCC[C@H](NC(=O)c1cccn(C(c2ccccc2)c2ccccc2)c1=O)C(=O)O [Compound 66, (2S)-2-({[1-(diphenylmethyl)-2-oxo-1,2-dihydropyridin-3-yl]carbonyl}amino)-4-{[[(ethoxycarbonyl)amino](methylamino)methylene]amino}butanoic acid] |
| 500 to 20000 | Cc1ccc(S(=O)(=O)NCCC[C@H](NC(=O)c2cccn(Cc3ccccc3)c2=O)C(=O)O)cc1 [Compound 67, (2S)-2-{[(1-benzyl-2-oxo-1,2-dihydropyridin-3-yl)carbonyl]amino}-5-{[(4-methylphenyl)sulfonyl]amino}pentanoic acid] |
| 500 to 20000 | Cc1ccc(S(=O)(=O)NCCC[C@H](NC(=O)c2cccn(C(c3ccccc3)c3ccccc3)c2=O)C(=O)O)cc1 [Compound 68, (2S)-2-({[1-(diphenylmethyl)-2-oxo-1,2-dihydropyridin-3-yl]carbonyl}amino)-5-{[(4-methylphenyl)sulfonyl]amino}pentanoic acid] |
| 50 to 500 | CS(=O)(=O)NCCC[C@H](NC(=O)c1cccn(C(c2ccccc2)c2ccccc2)c1=O)C(=O)O [Compound 69, (S)-2-(1-benzhydryl-2-oxo-1,2-dihydropyridine-3-carboxamido)-5-(methylsulfonamido)pentanoic acid] |
| < 50 | O=C(N[C@@H](CCCNC1=NCCN1)C(=O)O)c1cccn(C(c2ccccc2)c2ccccc2)c1=O [Compound 71, (2S)-5-(4,5-dihydro-1H-imidazol-2-ylamino)-2-({[1-(diphenylmethyl)-2-oxo-1,2-dihydropyridin-3-yl]carbonyl}amino)pentanoic acid•TFA] |
| 50 to 500 | N=C(NCCC[C@H](NC(=O)c1cccn(C(c2ccccc2)c2ccccc2)c1=O)C(=O)O)N[N+](=O)[O-] [Compound 74, (2S)-2-({[1-(diphenylmethyl)-2-oxo-1,2-dihydropyridin-3-yl]carbonyl}amino)-5-(nitrocarbamimidamido)pentanoic acid] |
| 500 to 20000 | COC(=O)[C@H](CCCNC(=N)N[N+](=O)[O-])NC(=O)c1cccn(C(c2ccccc2)c2ccccc2)c1=O [Compound 75, methyl (2S)-2-({[1-(diphenylmethyl)-2-oxo-1,2-dihydropyridin-3-yl]carbonyl}amino)-5-(nitrocarbamimidamido)pentanoate] |
